Results published in US6936285B1, “Use of Ginkgo biloba extracts for preparing a medicine” (Societe de Conseils de Recherches d'Application …, priority 1997, dated 2005).

Tested on: rats
Assay: Behavioural sensitization to amphetamine (motor hyperactivity measured by actimetry)
Settings: amphetamine 0.5 mg/kg IP, ginkgolide A 5 mg/kg per day oral

C[C@@H]1C(=O)O[C@H]2C[C@@]34[C@H]5C[C@@H](C(C)(C)C)[C@]36[C@@H](OC(=O)[C@@H]6O)O[C@@]4(C(=O)O5)[C@]21O [ginkgolide A]
behavioural sensitization to amphetamine: reduced
